The values below come from the RepoRT retention time repository (doi:10.1021/acs.analchem.1c00972).

This series is described as follows: RP, Waters ACQUITY UPLC BEH C18, 100 × 1 mm, 1.7 µm, 50 °C, 0.3 mL/min, estimated dead time 0.17 min; A: water + 0.1% formic acid + 20 mM ammonium formate; B: methanol + 0.1% formic acid + 20 mM ammonium formate; gradient (min/%B) 0/0 15/100 21/100 22/0 30/0. Particulars: stereoisomer not certain.

As for `CC(C)C1CCC(Cc2ccc(Cl)cc2)C1(O)Cn1cncn1` (single isomer, unassigned; isomer 1) [Ipconazole (Isomer 1)], the LC retention time was 16.4 min.

For the compound `Cc1ccc(OP(=O)(Oc2ccccc2)Oc2ccc(C)cc2)cc1` [Ditolyl phenyl phosphate], the LC retention time was 14 min.

Consider `COc1c2ccoc2c(OC)c2oc(=O)ccc12` [Isopimpinellin], for which the LC retention time is 12.2 min.

As for `CSc1nc(NC(C)C)nc(NC(C)C)n1` [Prometryne], the LC retention time is 14.2 min.

Regarding `N[C@@H](Cc1ccc(O)cc1)C(=O)O` [L-Tyrosine], the LC retention time is 6.5 min.

As to `CCCCN1CCCCC1C(=O)Nc1c(C)cccc1C` (centres undefined) [Bupivacaine], the LC retention time is 10.6 min.

With `O=C(O)/C=C/c1ccccc1` [trans-Cinnamic acid], the LC retention time is 9.9 min.

Take `COc1cc(OC)nc(NC(=O)NS(=O)(=O)c2ncccc2C(F)(F)F)n1` [Flazasulfuron]: the LC retention time was 13.4 min.

Take `N#Cc1ccccc1Oc1cc(=O)[nH]cn1` [Azoxystrobin-metabolite]: the LC retention time is 8.9 min.

As to `CC1(C)CC(N)CC(C)(CN)C1` (centres undefined) [Isophorone diamine], the LC retention time was 2.02 min.

For `Nc1ccc2nc3ccc(N)cc3nc2c1` [2,8-Diaminophenazine], the LC retention time is 8.24 min.

For `CC(CCC(=O)O)C1CCC2C3C(O)CC4CC(O)CCC4(C)C3CCC12C` (centres undefined) [Chenodeoxycholic acid], the LC retention time is 17.1 min.

As to `O=C(O)C1OC(Oc2ccc3c(=O)c(-c4ccc(O)cc4)coc3c2)C(O)C(O)C1O` (centres undefined) [Daidzein_glucuronide], the LC retention time is 8.4 min.

Consider `CC(C)c1ccc(N)cc1` [4-Isopropylaniline], for which the LC retention time is 9.8 min.

As to `CCCCOc1cc(C(=O)NCCN(CC)CC)c2ccccc2n1` [Dibucaine], the LC retention time was 13 min.

`CN(C)C(=O)Nc1ccc(-n2nc(C(C)(C)C)oc2=O)c(Cl)c1` [Dimefuron]: the LC retention time was 13.6 min.

For `CC12CCC3C(=CCc4cc(O)ccc43)C1CCC2=O` (centres undefined) [Equilin], the LC retention time is 13.8 min.

For `NC(Cc1ccccc1)C(=O)N1CCCC1C(=O)O` (centres undefined) [Phe-Pro], the LC retention time is 8.7 min.

Consider `NCCc1ccc(O)cc1` [tyramine], for which the LC retention time was 2.5 min.

With `CC(C)(C)NCC(O)c1ccc(O)c(CO)c1` (centres undefined) [Albuterol], the LC retention time was 6 min.

In the case of `CN(C)CCc1ccc(O)cc1` [Hordenine], the LC retention time was 3.04 min.

`NCCc1c[nH]c2ccccc12` [tryptamine]: the LC retention time was 7 min.

Consider `COC1CC(OC2C(C)OC(OC3C(C)=CCC4CC(CC5(CCC(C)C(C(C)C)O5)O4)OC(=O)C4C=C(C)C(O)C5OCC(=CC=CC3C)C45O)CC2OC)OC(C)C1O` (centres undefined) [Ivermectin B1b], for which the LC retention time is 5.5 min.

For the compound `Cc1cccc(C)c1N(Cn1cccn1)C(=O)CO` [Metazachlor-OH-deschloro], the LC retention time was 11.1 min.

Regarding `CN(C)c1nc2c(ncn2C2OC(CO)C(O)C2O)c(=O)[nH]1` (centres undefined) [N2_N2-Dimethylguanosine], the LC retention time is 6.3 min.

Consider `CCCCOCN(C(=O)CS(=O)(=O)O)c1c(CC)cccc1CC` [Butachlor ESA], for which the LC retention time is 14.5 min.

For `CC12C=CC(=O)C=C1CCC1C2C(O)CC2(C)C1CCC2(O)C(=O)CO` (centres undefined) [Prednisolone], the LC retention time is 12.4 min.

Turning to `CCOP(=O)(OCC)Oc1nc(Cl)c(Cl)cc1Cl` [Chlorpyrifos-oxon], the LC retention time was 15.2 min.

For the compound `CC(CCC(=O)O)C1CCC2C3CCC4CC(O)CCC4(C)C3CC(O)C12C` (centres undefined) [Deoxycholic acid], the LC retention time is 17.1 min.

Regarding `CCOC(=O)c1cn2nc(OP(=S)(OCC)OCC)cc2nc1C` [Pyrazophos], the LC retention time is 15.9 min.

`Cc1csc(C)c1NC(=O)CCl` [Dimethenamid-N-dealkylation]: the LC retention time was 10.2 min.

In the case of `NC(Cc1ccccc1)C(=O)O` (centres undefined) [phenylalanine], the LC retention time is 4.7 min.

Regarding `COc1ccc2[nH]cc(CCNC(C)=O)c2c1` [Melatonin], the LC retention time is 9.71 min.

`CCCCCCCC(O)CC(=O)O` (centres undefined) [3-Hydroxycapric acid]: the LC retention time was 12.3 min.

On to `Oc1ccc(C2(c3ccc(O)cc3)CCCCC2)cc1` [Bisphenol Z], for which the LC retention time was 16 min.

Regarding `CC(C)OC(=O)Nc1ccccc1` [Propham], the LC retention time is 12.7 min.

As for `CCN(CC)CCOC(=O)C(Cc1cccc2ccccc12)CC1CCCO1` (centres undefined) [Nafronyl], the LC retention time was 16 min.

Regarding `CON(C)C(=O)Nc1ccc(Cl)cc1` [Monolinuron], the LC retention time is 12.2 min.

Turning to `[O-][n+]1nc(-n2ccnc2)nc2ccc(Cl)cc21` [Triazoxide], the LC retention time is 11.8 min.

On to `CC1OC(OC2CCC3(C=O)C4CCC5(C)C(C6=CC(=O)OC6)CCC5(O)C4CCC3(O)C2)C(O)C(O)C1O` (centres undefined) [Convallatoxin], for which the LC retention time was 11.2 min.

Turning to `CC=C(C)C(=O)NCC(=O)O` [N-Tigloylglycine], the LC retention time is 6.4 min.

For the compound `CCCCCCCCCCCC(CC1OC(=O)C1CCCCCC)OC(=O)C(CC(C)C)NC=O` (centres undefined) [Orlistat], the LC retention time was 19 min.

Regarding `CCOC(=O)C1CC(=O)C(=C(O)C2CC2)C(=O)C1` (centres undefined) [Trinexapac-ethyl], the LC retention time was 13.2 min.

Consider `CCCCCCCCCCCCCCCCCC(=O)OCC(O)CO` (centres undefined) [Glyceryl monostearate], for which the LC retention time is 19.2 min.

Consider `CCCCCCCCCCCCOC(=O)c1ccccc1C(=O)OCCCCCCCCCCCC` [Didodecylphthalate], for which the LC retention time is 21.7 min.

As to `Cc1cc(C(C)(C)C)cc(C)c1CC1=NCCN1` [Xylometazoline], the LC retention time was 12.4 min.

In the case of `CCOCN(C(=O)CS(=O)(=O)O)c1c(C)cccc1CC` [Acetochlor ESA], the LC retention time was 11.9 min.

Take `Cn1c(=O)c2[nH]c(=O)[nH]c2n(C)c1=O` [1,3-Dimethyluric acid]: the LC retention time was 5.8 min.

As for `O=S1(=O)CCCC1` [Sulfolane], the LC retention time was 2.73 min.

Regarding `CCCCOc1ccc(CC(=O)NO)cc1` [Bufexamac], the LC retention time is 12.6 min.

On to `CCC(C(N)=O)N1CCCC1=O` (centres undefined) [levetiracetam], for which the LC retention time was 6.9 min.

As to `CCOCN(C(=O)C(=O)O)c1c(C)cccc1CC` [Acetochlor OA], the LC retention time was 15.5 min.

Turning to `Cc1cc2n[nH]nc2cc1C` [5,6-Dimethyl-1,1,1-benzotriazol], the LC retention time is 11.2 min.

Regarding `CC(C)(C)c1cc(-n2nc3ccccc3n2)c(O)c(C(C)(C)C)c1` [UV-320], the LC retention time was 19.8 min.

In the case of `Cc1cc(-n2nc3ccc(Cl)cc3n2)c(O)c(C(C)(C)C)c1` [UV-326], the LC retention time is 17.6 min.

For the compound `Cn1ncc(N)c(Cl)c1=O` [Methyl-Desphenyl-Chloridazon], the LC retention time was 5.18 min.

`CC1CCCCC1NC(=O)Nc1ccccc1` (centres undefined) [Siduron]: the LC retention time is 13.9 min.

With `CC(=O)OCC(=O)C1(O)C(C)CC2C3CCC4=CC(=O)C=CC4(C)C3(F)C(O)CC21C` (centres undefined) [Betamethasone-21-acetate], the LC retention time was 14.1 min.

Consider `CCCCCCCCCCCOC(=O)c1ccccc1C(=O)OCCCCCCCCCCC` [Diundecylphthalate], for which the LC retention time was 21 min.

Regarding `CC1CCC2(C(=O)O)CCC3(C)C(=CCC4C5(C)CCC(O)C(C)(C)C5CCC43C)C2C1C` (centres undefined) [Ursolic acid], the LC retention time was 18.5 min.

Take `CCCCCC(=O)OC1(C(C)=O)CCC2C3CCC4=CC(=O)CCC4C3CCC21C` (centres undefined) [Gestonorone capronate]: the LC retention time was 16.7 min.

As for `O=C(NCc1ncc(C(F)(F)F)cc1Cl)c1c(Cl)cccc1Cl` [Fluopicolide], the LC retention time was 14.4 min.

Consider `CCNc1nc(=S)nc(NC(C)(C)C)[nH]1` [Terbutryn-desmethyl], for which the LC retention time was 11.9 min.

Consider `CC(=O)C1CCC2C3CC=C4CC(O)CCC4(C)C3CCC12C` (stereo not drawn) [5-Pregnen-3.beta.-ol-20-one], for which the LC retention time was 15.2 min.

As for `O=C(O)c1cccc(Oc2cccc(C(F)(F)F)c2)n1` [Picolinafen-OH-O-dealkylation], the LC retention time is 14 min.

For the compound `CCOP(=O)(OCC)Oc1cc(C)nc(C(C)C)n1` [Diazoxon / Diazinon-oxon], the LC retention time is 15.7 min.

Regarding `COc1ccc(NS(=O)(=O)c2ccc(N)cc2)nn1` [Sulfamethoxypyridazin], the LC retention time was 8.03 min.

`COCCOCCOCCOC` [Triglyme]: the LC retention time is 8.28 min.

Take `O=c1c2ccccc2oc2ccccc12` [Xanthon]: the LC retention time is 13.6 min.

In the case of `COCCCOc1cc(CC(CC(N)C(O)CC(C(=O)NCC(C)(C)C(N)=O)C(C)C)C(C)C)ccc1OC` (centres undefined) [Aliskiren], the LC retention time is 13.6 min.

As to `CC(Oc1ccc(Oc2ccc(Cl)cc2Cl)cc1)C(=O)O` (centres undefined) [Diclofop], the LC retention time is 14.3 min.

As for `Cc1c(N)c(=O)n(-c2ccccc2)n1C` [4-Aminoantipyrine], the LC retention time is 7.28 min.

Turning to `CON=C(Cc1cccnc1)c1ccc(Cl)cc1Cl` [Pyrifenox], the LC retention time was 14.3 min.

Turning to `O=C1CC[C@@H](C(=O)O)N1` [L-Pyroglutamic acid], the LC retention time is 7.7 min.

Regarding `CCOc1ccc(NC(=O)OC(C)C)cc1OCC` [Diethofencarb], the LC retention time was 7.48 min.

In the case of `CCC1(O)C(=O)OCc2c1cc1n(c2=O)Cc2cc3ccccc3nc2-1` (centres undefined) [Camptothecin], the LC retention time was 12 min.

`CC(C)(C)Nc1nc(=O)[nH]c(=O)[nH]1`: the LC retention time is 13.3 min.

As to `COc1nn(CSP(=S)(OC)OC)c(=O)s1` [Methidation], the LC retention time is 13.2 min.

On to `CCOC(=O)CC(SP(=S)(OC)OC)C(=O)OCC` (centres undefined) [Malathion], for which the LC retention time was 14.3 min.
